One data set deals with ECHCG. Kind of data set: greenhouse post-emergence herbicidal test. The data set is classed as in vivo, barnyard grass. The text has this:
(§1) The culture containers used were plastic flowerpots containing loamy sand with approximately 3.0% of humus as substrate. The seeds of the test plants were sown separately for each species. For the post-emergence treatment, the test plants were first grown to a plant height of from 3 to 15 cm, depending on the plant habit, and only then treated with the active ingredients which had been suspended or emulsified in water. To this end, the test plants were either sown directly and grown in the same containers, or they were first grown separately as seedlings and transplanted into the test containers a few days prior to treatment. […] Depending on the species, the plants were kept at from 10 to 25° C., or 20-35° C., respectively. The test period extended over 2 to 4 weeks. During this time, the plants were tended, and their response to the individual treatments was evaluated. Evaluation was carried out using a scale of from 0 to 100. 100 means no emergence of the plants, or complete destruction of at least the aerial parts, and 0 means no damage, or normal course of growth. [table]

A further data set concerns CHEAL. In words: greenhouse post-emergence herbicidal test. The data set is classed as in vivo, lambsquarters (goosefoot).
Text: as §1

Another data set deals with POLPE. In words: greenhouse post-emergence herbicidal test. The data set is classed as in vivo, ladysthumb.
Text: as §1

For a further data set, the system named is GALAP. Kind of data set: greenhouse post-emergence herbicidal test. The data set is classed as in vivo, catchweed bedstraw. As to conditions: application rates 0.5 and 0.25 kg/ha (a.s.). From the text: The culture containers used were plastic flowerpots containing loamy sand with approximately 3.0% of humus as substrate. The seeds of the test plants were sown separately for each species. For the post-emergence treatment, the test plants were first grown to a plant height of from 3 to 15 cm, depending on the plant habit, and only then treated with the active ingredients which had been suspended or emulsified in water. To this end, the test plants were either sown directly and grown in the same containers, or they were first grown separately as seedlings and transplanted into the test containers a few days prior to treatment. The rate of application for the post-emergence treatment was 0.5 or 0.25 kg of a.s. (active. substance)/ha. Depending on the species, the plants were kept at from 10 to 25° C., or 20-35° C., respectively. The test period extended over 2 to 4 weeks. During this time, the plants were tended, and their response to the individual treatments was evaluated. Evaluation was carried out using a scale of from 0 to 100. 100 means no emergence of the plants, or complete destruction of at least the aerial parts, and 0 means no damage, or normal course of growth. [table]

The test system of a further data set is AMARE. Kind of data set: greenhouse post-emergence herbicidal test. The data set is classed as in vivo, redroot pigweed.
Text: as §1

The next data set concerns LAMAM. In words: greenhouse post-emergence herbicidal test. The data set is classed as in vivo, henbit.
Text: as §1

The next data set relates to PAPRH. Kind of data set: greenhouse post-emergence herbicidal test. The data set is classed as in vivo, corn poppy.
Text: as §1

Another data set concerns STEME. Kind of data set: greenhouse post-emergence herbicidal test. The data set is classed as in vivo, common chickweed.
Text: as §1

The subject of another data set is THLAR. In words: greenhouse post-emergence herbicidal test. The data set is classed as in vivo, fanweed.
Text: as §1

Another data set has as its system SOLNI. Kind of data set: greenhouse post-emergence herbicidal test. The data set is classed as in vivo, black nightshade.
Text: as §1

In another data set the test system is MYOAR. In words: greenhouse post-emergence herbicidal test. The data set is classed as in vivo, forget-me-not.
Text: as §1

For the next data set, the system named is EPHHL. Kind of data set: greenhouse post-emergence herbicidal test. The data set is classed as in vivo, spurge.
Text: as §1

The subject of a further data set is wheat. Kind of data set: greenhouse post-emergence test, crop selectivity. To be noted: application rates 0.125 and 0.0625 kg/ha. The data set is classed as in vivo, spring wheat.
Text: as §1

Another data set has as its system AVEFA. Kind of data set: greenhouse post-emergence herbicidal test. The data set is classed as in vivo, wild oats.
Text: as §1

The subject of the next data set is GASPA. In words: greenhouse post-emergence herbicidal test. The data set is classed as in vivo, smallflower. To be noted: application rates 0.125 and 0.0625 kg/ha.
Text: as §1

The mark [1] stands for this setting: application rates 0.5 and 0.25 kg/ha.
The mark [2] stands for this setting: application rates 0.5 and 0.25 kg/ha (a.s.).
Where [3] appears, read: application rates 0.25 and 0.125 kg/ha.
[4] abbreviates: application rates 0.125 and 0.0625 kg/ha.

Molecules are shown by their SMILES.

One may read the melting point as the temperature of the solid-liquid transition.

`Cc1c(C(=O)c2cnn(C)c2OC(=O)c2cccc(F)c2)ccc2scnc12` [Example 16, 4-(4′-methylbenzothiazol-5′-ylcarbonyl)-5-(3″-fluorobenzoyl)oxy-1-methylpyrazole]: the “herbicidal action against ECHCG” value with ECHCG (setting [1]) is recorded as “very good herbicidal action”. Besides, the “herbicidal action against CHEAL” value in the data set with CHEAL (setting [2]) is given as “very good herbicidal action”. Besides, the “herbicidal action against POLPE” value with POLPE (setting [2]) is “very good herbicidal action”. Besides, in the data set on GALAP, the “herbicidal action against GALAP” value is recorded as “very good herbicidal action”. Moreover, the “herbicidal action against AMARE” value in the data set on AMARE (setting [1]) is on record as “very good herbicidal action”.

For `Cc1c(C(=O)c2cnn(C(C)C)c2O)ccc2scnc12` [Example 12, 4-(4′-methylbenzothiazol-5′-ylcarbonyl)-5-hydroxy-1-isopropylpyrazole], in the data set with LAMAM (setting [3]), the “herbicidal action against LAMAM” value was “very good herbicidal action”. Further, the “herbicidal action against CHEAL” value in the data set with CHEAL (setting [3]) is reported as “very good herbicidal action”. In the data set with PAPRH (setting [3]), the “herbicidal action against PAPRH” value is recorded as “very good herbicidal action”. Also, the “herbicidal action against STEME” value in the data set on STEME (setting [3]) is given as “very good herbicidal action”. In addition, in the data set on THLAR (setting [3]), the “herbicidal action against THLAR” value was “very good herbicidal action”.

For `CCc1nc2c(C)c(C(=O)c3cnn(C(C)C)c3O)ccc2o1` [Example 31, 4-(2′-ethyl-4′-methylbenzoxazol-5′-ylcarbonyl)-5-hydroxy-1-isopropylpyrazole], the “herbicidal action against LAMAM” value in the data set with LAMAM (setting [3]) is recorded as “very good herbicidal action”. In addition, in the data set on CHEAL (setting [3]), the “herbicidal action against CHEAL” value is recorded as “very good herbicidal action”. Besides, the “herbicidal action against POLPE” value in the data set with POLPE (setting [3]) is listed as “very good herbicidal action”. The “herbicidal action against AMARE” value in the data set on AMARE (setting [3]) is given as “very good herbicidal action”. The “herbicidal action against PAPRH” value in the data set on PAPRH (setting [3]) is on record as “very good herbicidal action”. For the same compound, the “herbicidal action against THLAR” value in the data set with THLAR (setting [3]) was “very good herbicidal action”.

In the case of `COCc1nc2c(C)c(C(=O)c3cnn(C(C)C)c3O)ccc2s1` [Example 36, 4-(2′-methoxymethyl-4′-methylbenzothiazol-5′-ylcarbonyl)-5-hydroxy-1-isopropylpyrazole], the “herbicidal action against SOLNI” value with SOLNI (setting [3]) is listed as “very good herbicidal action”. In addition, the “herbicidal action against CHEAL” value with CHEAL (setting [3]) is recorded as “very good herbicidal action”. The “herbicidal action against MYOAR” value with MYOAR (setting [3]) is “very good herbicidal action”. In addition, the “herbicidal action against EPHHL” value in the data set on EPHHL (setting [3]) is given as “very good herbicidal action”. Moreover, in the data set with PAPRH (setting [3]), the “herbicidal action against PAPRH” value is “very good herbicidal action”. For the same compound, the “herbicidal action against STEME” value with STEME (setting [3]) was “very good herbicidal action”.

With `COCc1nc2c(C)c(C(=O)c3cnn(C)c3O)ccc2s1` [Example 34, 4-(2′-methoxymethyl-4′-methylbenzothiazol-5′-ylcarbonyl)-5-hydroxy-1-methylpyrazole], the “herbicidal action against LAMAM” value in the data set with LAMAM (setting [3]) was “very good herbicidal action”. The “herbicidal action against CHEAL” value with CHEAL (setting [3]) is “very good herbicidal action”. Moreover, the “herbicidal action against PAPRH” value with PAPRH (setting [3]) is “very good herbicidal action”. The “herbicidal action against STEME” value in the data set with STEME (setting [3]) was “very good herbicidal action”. For the same compound, the “herbicidal action against THLAR” value with THLAR (setting [3]) is “very good herbicidal action”.

For the compound `CCc1nc2c(C)c(C(=O)c3cnn(C)c3O)ccc2o1` [Example 30, 4-(2′-ethyl-4′-methylbenzoxazol-5′-ylcarbonyl)-5-hydroxy-1-methylpyrazole], the “herbicidal action against LAMAM” value in the data set with LAMAM (setting [3]) is “very good herbicidal action”. Besides, the “herbicidal action against CHEAL” value in the data set on CHEAL (setting [3]) is “very good herbicidal action”. The “herbicidal action against POLPE” value in the data set on POLPE (setting [3]) was “very good herbicidal action”. Besides, the “herbicidal action against PAPRH” value in the data set on PAPRH (setting [3]) is “very good herbicidal action”. In addition, in the data set with THLAR (setting [3]), the “herbicidal action against THLAR” value is on record as “very good herbicidal action”.

As for `Cc1nc2c(C)c(C(=O)c3cnn(C(C)C)c3O)ccc2s1` [Example 33, 4-(2′,4′-dimethylbenzothiazol-5′-ylcarbonyl)-5-hydroxy-1-isopropylpyrazole], in the data set on LAMAM (setting [3]), the “herbicidal action against LAMAM” value was “very good herbicidal action”. Moreover, the “herbicidal action against CHEAL” value in the data set on CHEAL (setting [3]) is listed as “very good herbicidal action”. In addition, the “herbicidal action against MYOAR” value with MYOAR (setting [3]) is on record as “very good herbicidal action”. The “herbicidal action against AMARE” value in the data set on AMARE (setting [3]) is on record as “very good herbicidal action”. Besides, the “herbicidal action against PAPRH” value in the data set on PAPRH (setting [3]) was “very good herbicidal action”. Further, the “herbicidal action against THLAR” value in the data set on THLAR (setting [3]) is reported as “very good herbicidal action”.

Turning to `Cc1c(C(=O)c2cnn(C)c2OCc2ccccc2)ccc2scnc12` [Example 13, 4-(4′-methylbenzothiazol-5′-ylcarbonyl)-5-benzyloxy-1-methylpyrazole], in the data set with wheat, the selectivity in wheat result is reported as “selectivity in wheat”. Moreover, in the data set with SOLNI (setting [4]), the “herbicidal action against SOLNI” value was “very good herbicidal action”. Besides, the “herbicidal action against CHEAL” value with CHEAL (setting [4]) is “very good herbicidal action”. In addition, the “herbicidal action against MYOAR” value with MYOAR (setting [4]) is listed as “very good herbicidal action”. Also, the “herbicidal action against EPHHL” value in the data set on EPHHL (setting [4]) is recorded as “very good herbicidal action”. Further, in the data set on PAPRH (setting [4]), the “herbicidal action against PAPRH” value is “very good herbicidal action”.

In the case of `Cc1c(C(=O)c2cnn(C)c2OC(=O)C2CC2)ccc2scnc12` [Example 18, 4-(4′-methylbenzothiazol-5′-ylcarbonyl)-5-cyclopropylcarbonyloxy-1-methylpyrazole], in the data set with ECHCG (setting [3]), the “herbicidal action against ECHCG” value is on record as “very good herbicidal action”. Also, the “herbicidal action against CHEAL” value in the data set with CHEAL (setting [3]) was “very good herbicidal action”. In addition, the “herbicidal action against POLPE” value with POLPE (setting [3]) is given as “very good herbicidal action”. For the same compound, the “herbicidal action against AMARE” value in the data set with AMARE (setting [3]) is “very good herbicidal action”. In addition, the “herbicidal action against AVEFA” value with AVEFA (setting [3]) is on record as “very good herbicidal action”.

In the case of `Cc1c(C(=O)c2cnn(C)c2OC(=O)c2ccccc2)ccc2scnc12` [Example 15, 4-(4′-methylbenzothiazol-5′-ylcarbonyl)-5-benzoyloxy-1-methylpyrazole], in the data set with ECHCG (setting [3]), the “herbicidal action against ECHCG” value is “very good herbicidal action”. The “herbicidal action against CHEAL” value with CHEAL (setting [3]) is given as “very good herbicidal action”. Also, the “herbicidal action against POLPE” value in the data set with POLPE (setting [3]) is “very good herbicidal action”. Also, the “herbicidal action against AMARE” value in the data set on AMARE (setting [3]) is listed as “very good herbicidal action”. Further, the “herbicidal action against AVEFA” value with AVEFA (setting [3]) is “very good herbicidal action”.

For `Cc1nc2c(C)c(C(=O)c3cnn(C)c3O)ccc2s1` [Example 14, 4-(2′,4′-dimethylbenzothiazol-5′-ylcarbonyl)-5-hydroxy-1-methylpyrazole], the “herbicidal action against LAMAM” value in the data set with LAMAM (setting [4]) is given as “very good herbicidal action”. Besides, the “herbicidal action against GASPA” value in the data set on GASPA is listed as “very good herbicidal action”. Besides, in the data set with STEME (setting [4]), the “herbicidal action against STEME” value is reported as “very good herbicidal action”. Also, the “herbicidal action against THLAR” value in the data set with THLAR (setting [4]) is reported as “very good herbicidal action”.

`Cc1c(C(=O)c2cnn(C)c2O)ccc2scnc12` [Example 1, 4-[4′-Methylbenzothiazol-5′-ylcarbonyl]-5-hydroxy-1-methylpyrazole] showed a melting point of 149 to 150 °C. Moreover, the “herbicidal action against SOLNI” value in the data set on SOLNI (setting [2]) is “very good herbicidal action”. Also, in the data set with CHEAL (setting [2]), the “herbicidal action against CHEAL” value is recorded as “very good herbicidal action”. Also, in the data set on POLPE (setting [2]), the “herbicidal action against POLPE” value is “very good herbicidal action”. The “herbicidal action against GALAP” value with GALAP was “very good herbicidal action”. For the same compound, the “herbicidal action against AVEFA” value in the data set on AVEFA (setting [2]) is “very good herbicidal action”.

These data come from patent US6541423B1, “4-(3′,4′-heterocyclyl benzoyl) pyrazoles as herbicidal agents” (BASF Aktiengesellschaft, priority 1999, dated 2003).
